Test results taken from PMC10447463, “Data-mining unveils structure–property–activity correlation of viral infectivity enhancing self-assembling peptides” (Nature Communications, 2023).

Columns and labels:
[1] = Aggregate analysis by widefield fluorescence microscopy; assay type: physicochemical
Description: 4 µL of 1 mg/mL peptide fibrils solution is added to a 20 µL, 50 µM ThT–solution in PBS. The mixture is incubated for 15 min at RT to allow binding of ThT dye with β–sheet rich structures. For reference PBS (4 µL) was added instead of peptide fibril solution. The samples were placed in black UV Star® 384 microliter well–plates (Greiner bio–one). Fluorescence spectra were recorded on an Infinite® M1000 PRO microplate reader (Tecan) at λem = 488 nm upon excitation at λex = 440 nm with 10 nm bandwidths and multiple reads per well (3×3). Measurements were repeated in triplicates and averaged with standard deviation. A peptide fibril was considered as ThT-active if the fluorescence intensity was at least twice as strong compared to the control (PBS containing 10% DMSO). Zeta-Potential. For the determination of the surface charge of aggregated peptides zeta-potential measurements were conducted with a Zetasizer Nano ZS, Malvern Instruments. Unless stated otherwise the peptides were dissolved from DMSO (10 mg/mL) in PBS (pH 7.4) to concentration of 1 mg/mL and incubated for 1d at RT. Just before the measurement the 60 µL of the peptides were further diluted in 600 µL KCl (aq, 1 mM) in a 1 mL disposable folded capillary cells (DTS–1060, Zetasizer Nano series, Malvern). The zeta potential of the peptides was derived from the electrophoretic mobility based on the Smoluchowski formula. All measurements were averaged over two individually performed experiments and conducted in triplicates for each sample. Aggregate analysis. […] Furthermore, fluorescence microscopy was conducted by staining 1 µL preformed fibrils (1 mg/mL) with 9 µL ThT (50 µM). Brightfield microscopy was performed simultaneously to evaluate aggregation also for non ThT-active fibrils. The measurements were performed on a Leica DMi8 microscope with 10x air objective and equipped with a Leica MC170 HD camera with a filter setting λem = 527/30 nm upon excitation at λex = 480/40 nm) and processed with the Leica LASX software. To quantify size and number of microscopic aggregation of particles > 10 µm^2 at least 3 independently measured images were analyzed via the 3D object counter analysis tool of ImageJ, v 1.53f51. Sum–frequency generation. The SFG experiments were carried out with a femtosecond Ti: Sapphire amplified laser system (Spitfire Ace, Spectra–Physics, 800 nm, 40 fs, 1 kHz) with 5 W output power. We used 2 W to pump an optical parametric amplifier (TOPAS, light conversion) with a non–collinear difference frequency generation stage to generate broadband IR pulses. Another 1 W of the laser output passed through an etalon to generate narrowband visible pulses (10 cm^-1). The incident angles of the visible and IR beams were 36° and 41° with respect to the surface normal, respectively. The visible (13 µJ) and IR (5 µJ) pulses were overlapped spatially and temporally at the sample position. Subsequently, the generated SFG pulse was guided into a spectrograph (Acton SP 300i, Princeton Instruments), and detected with an EMCCD (Newton, Andor Technology). To avoid IR absorption of water vapor, we purged N2 for the measurement. All spectra were collected in the ssp (denoting s-, s- and p-polarized SFG, visible and IR, respectively) polarization combination. The spectra were normalized to the non–resonant signal taken from z–cut quartz after subtracting a background spectrum.
Table S8 Summary of aggregate analysis from widefield microscopy measurements (Figure S32). The Number of aggregated peptides, the median size area, average size area
and the cumulative total size area of all particles (> 10 µm2) in an area of 1330 µm × 1330 µm was determined via automated 3D object counting (ImageJ) in triplicate
measurements (Std. Dev.).
Aggregate Std. Dev. Std. Dev. Std. Dev. Std. Dev.
Sequence Abs. Inf. / Std. Dev. / Count Rate / Std. Dev. Number Aggregate Median Area Median Area Average Area Average Area Total Area/ Total Area/ […]

[2] = system: TZM-bl cells; assay type: cell-based; details: CellTiter-Glo, mean of n = 3 replicates; for viability 0.26 µM: peptide 0.26 µM; for viability 1.3 µM: peptide 1.3 µM; for viability 6.5 µM: peptide 6.5 µM
Summary of the method: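 CellTiter-Glo luminescence, normalized to 100% metabolic activity, gave cytotoxicity readout for TZM-bl cells exposed to peptide serial dilutions for 3 days; 10,000 cells seeded, triplicate measurements.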

[3] = Turbidity, derived count rate of scattered light; assay type: physicochemical; details: for Count Rate: derived count rate of scattered light (turbidity); for Log10 Count Rate: turbidity, derived count rate of scattered light, data of Figure 2D
[4] = Fig S8 panels B, D, average aggregate area, 3 fields of 1330 µm x 1330 µm
[5] = Fig S8 panels B, D, median aggregate area, 3 fields of 1330 µm x 1330 µm
[6] = Fig S8 panels B, D, 3 fields of 1330 µm x 1330 µm
[7] = Fig S8 panels B, D, widefield fluorescence microscopy, 3 fields of 1330 µm x 1330 µm

Row | Substance | viability 0.26 µM [2] | viability 1.3 µM [2] | viability 6.5 µM [2] | also measured
1 | KWKWQW [KB3] | – | – | – | Avg Area in 3 *(1330 µm *1330 µm) ([1]; Fig S8 panels A, C): 112; Log 10 Number of aggregates in 3 * (1330 µm *1330 µm) ([1]; Fig S8 panels A, C): 1.442; Median Area in 3 * (1330 µm *1330 µm) ([1]; Fig S8 panels A, C): 41.405; log Avg Area in 3 * ( (1330 µm *1330 µm)) ([1]; Fig S8 panels A, C): 2.049; log Median Area in 3 * ( (1330 µm *1330 µm)) ([1]; Fig S8 panels A, C): 1.617; log Total Area of all particles in 3 * (1330 µm *1330 µm) ([1]; Fig S8 panels A, C): 3.491; Number of aggregates in 3 * (1330 µm *1330 µm) ([1]; Fig S8 panels A, C, 3 fields of 1330 µm x 1330 µm): 27.67; Avg Area in 3 *(1330 µm *1330 µm) [1, 4]: 112; Median Area in 3 * (1330 µm *1330 µm) [1, 5]: 41.405; Total Area of all particles in 3 * (1330 µm *1330 µm) [1, 6]: 3098; Number of aggregates in 3 * (1330 µm *1330 µm) [1, 7]: 27.67
2 | KFKFQFW [TM71] | 107.5 | 104.2 | 102.2 | –
3 | QCKFKFQF [CK9] | 104.7 | 139.5 | 96.02 | –
4 | RGDSKIKIQIC [TM113 / RC11] | 92.36 | 89.65 | 83.18 | –
5 | KAKAQANMWQ [JG3] | 106.8 | 106.3 | 103.1 | –
6 | QCKAKAQA [CK24] | – | – | – | Avg Area in 3 *(1330 µm *1330 µm) [1, 4]: 0; Median Area in 3 * (1330 µm *1330 µm) [1, 5]: 0; Total Area of all particles in 3 * (1330 µm *1330 µm) [1, 6]: 0; Number of aggregates in 3 * (1330 µm *1330 µm) [1, 7]: 0
7 | RGDCKIKIQINM [TM45] | 111.8 | 107.9 | 102.5 | –
8 | RGDKIKIQIC [MG7/CN1] | 116.2 | 110.7 | 92.54 | –
9 | RGDCKFKFQF [TM64/ CN15] | 108.7 | 107.1 | 101 | –
10 | CRFRFQF [CN10] | 93.96 | 90.72 | 89.78 | –
11 | KFKFQFNMW | – | – | – | Count Rate [3]: 610.2; Log10 Count Rate [3]: 2.785
12 | KLKQLL | – | – | – | Count Rate [3]: 319.9; Log10 Count Rate [3]: 2.505
13 | CKIKIQINMWQ | – | – | – | Count Rate [3]: 1881; Log10 Count Rate [3]: 3.274
14 | RGDKIKIQI | – | – | – | Count Rate [3]: 298.1; Log10 Count Rate [3]: 2.474
15 | CKFKFQFNMWQ [BL2] | 106 | 95.99 | 75.41 | –
16 | KIKIQINM [JGB2] | 119.1 | 112 | 103.3 | –
17 | QCKIKIQI [CK3] | 95.48 | 97.81 | 91.95 | –
18 | CEIEIQINMWQ [TM143] | 119.4 | 116.4 | 95.82 | –
